Laboratory results as given in patent US8258182B2, “Substituted 1,3-diphenylpropane derivatives, preparations and uses thereof” (Genfit, priority 2006, dated 2012).

Test system: PPARs target genes (PDK4, ACO, UCP2) in hepatic and skeletal muscle tissue
Assay: Expression of PPAR target genes in liver and skeletal muscle of db/db mice (quantitative RT-PCR)
Format: in vivo, mouse
Conditions: 50 mpk
Description: The effectiveness of the compounds according to the invention is also evaluated by measuring, in hepatic and muscular (skeletal) tissue, the expression of the genes involve in lipid and/or carbohydrate metabolism and in energy dissipation. Each level of gene expression is normalized in regarding the expression level of reference gene 36B4 in the hepatic tissue, or regarding the expression level of reference gene 18S in the gastrocnemius skeletal muscle. The induction factor, i.e. the ratio between the relative signal (induced by the compound according to the invention) and the average of relative values relating to the control group, is then calculated. The higher the induction factor is, the more the compound promotes gene expression. The final result is expressed as an average of the induction values obtained with each experimental group.
Female db/db mice were kept on a 12 hour/12 hour light/dark cycle at a constant temperature of 20±3° C. After a one week acclimatization period, the mice were weighed and divided into groups of 8 animals selected such as the distribution of body weight and of plasma lipid rate, determined before the experiment, was uniform. […] Taking of food and weight gain are recorded throughout the experiment. […]
1 μg of total RNA (quantified by spectrophotometry) was then reverse-transcripted into complementary DNA by means of a 1 hour reaction at 37° C. in a total volume of 20 μl containing a 1× buffer (Sigma), 1.5 mM of DTT, 0.18 mM of dNTPs (Promega), 200 ng of pdN6 (Amersham), 30U of RNase inhibitor (Sigma), and 1 μl of MMLV-RT (Sigma).
The PCR quantitative experiments were carried out using the MyiQ Single-Color Real-Time PCR Detection System (Biorad, Marnes-la-Coquette, France) and were performed using the iQ SYBR Green Supermix kit according to the provider's recommendations, in 96-well plates, with 5 μl of diluted reverse transcription solutions and at a hybridization temperature of 55° C. […]
The fluorescent quantity emitted is directly proportional to the amount of cDNA present at the beginning of the reaction and amplified during the PCR. […]

For CCCOc1ccc(C(=O)CCc2cc(C)c(OC(C)(C)C(=O)O)c(C)c2)cc1 [Compound 8, 2-[2,6-dimethyl-4-[3-[4-(propyloxy)phenyl]-3-oxo-propyl]phenoxyl]-2-methylpropanoic acid], the “hepatic expression of the genes coding for PDK4” value (28 days (FIG. 3-4)) was “significant increase”, the “hepatic expression of the genes coding for ACO” value (28 days (FIG. 3-5)) was “significant increase” and the “expression of the gene coding for UCP2 in the skeletal muscle” value (28 days (FIG. 3-6)) was “increase”.
